Molecules are shown by their SMILES.

The target in the assay is T1, Human CatS (Homo sapiens, UniProt P25774).
T1 construct: made in house; host or cells: Sf9 insect cells (baculovirus vector pFB+HT)
T1 sequence (P25774 115-331): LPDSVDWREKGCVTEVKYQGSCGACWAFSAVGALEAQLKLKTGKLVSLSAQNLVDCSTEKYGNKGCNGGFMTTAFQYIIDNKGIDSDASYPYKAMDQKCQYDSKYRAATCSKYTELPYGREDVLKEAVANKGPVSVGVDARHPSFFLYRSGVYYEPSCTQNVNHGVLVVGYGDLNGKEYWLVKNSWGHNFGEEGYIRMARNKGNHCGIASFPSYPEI
The assay can be described thus: CatS inhibition of hydrolysis of fluorescent substrate Z-Val-Val-Arg-AFC. The note with it: apparent Ki, Morrison equation fit of initial rates; 10 μM Z-Val-Val-Arg-AFC, pH 5.0, 1.5 nM CatS; read-out: CatS Ki^app. The format is biochemical. As to the method: Human CatS was cloned into pFB+HT (from Stratagene clone), expressed in Sf9 cells, and purified over a Ni column. Fractions were concentrated and activated at pH 4.0 for 6 hr and then purified over a thiopropylsepharose column and eluted with 1×TBS, 500 mM NaCl, 1 mM EDTA, 25 mM DTT pH 7.6. Glycerol (50%) was added in a 1:1 (vol/vol) ratio (25% glycerol final) and protein was stored at −80° C. in 5 μL aliquots. […] The increase in fluorescence over time was monitored using λexcitation=400 nm and λemission=505 nm.
In equation 1, v is the initial rate measured in the presence of [I]0, the inhibitor concentration, using an enzyme concentration [E]0. v0 is the initial rate measured in the absence of inhibitor.
On to `C[C@@H](CN1CCc2cc(F)ccc21)NC(=O)c1cccc(-c2cc(-c3nn(CCCN4CCCC4)c4c3CN(S(C)(=O)=O)CC4)ccc2Cl)c1` [Example 9, (S)-2′-Chloro-5′-[5-methanesulfonyl-1-(3-pyrrolidin-1-yl-propyl)-4,5,6,7-tetrahydro-1H-pyrazolo[4,3-c]pyridin-3-yl]-biphenyl-3-carboxylic acid [2-(5-fluoro-2,3-dihydro-indol-1-yl)-1-methyl-ethyl]-amide], for which the Ki turned out to be 138 nM.
Under `CN(C)S(=O)(=O)c1ccc2c(c1)N(CCNC(=O)c1cccc(-c3cc(-c4nn(CCCN5CCCC5)c5c4CN(S(C)(=O)=O)CC5)ccc3Cl)c1)CC2` [Example 11, 2′-Chloro-5′-[5-methanesulfonyl-1-(3-pyrrolidin-1-yl-propyl)-4,5,6,7-tetrahydro-1H-pyrazolo[4,3-c]pyridin-3-yl]-biphenyl-3-carboxylic acid [2-(6-dimethylsulfamoyl-2,3-dihydro-indol-1-yl)-ethyl]-amide] stands 135 nM.
For the compound `CS(=O)(=O)N1CCc2c(c(-c3ccc(Cl)c(-c4cccc(C(=O)NCCNc5cccnc5)c4)c3)nn2CCCN2CCCC2)C1` [Example 7, 2′-Chloro-5′-[5-methanesulfonyl-1-(3-pyrrolidin-1-yl-propyl)-4,5,6,7-tetrahydro-1H-pyrazolo[4,3-c]pyridin-3-yl]-biphenyl-3-carboxylic acid [2-(pyridin-3-ylamino)-ethyl]-amide], the Ki turned out to be 876 nM.
Under `CS(=O)(=O)N1CCc2c(c(-c3ccc(Cl)c(-c4cccc(C(=O)NCc5ncco5)c4)c3)nn2CCCN2CCC(O)C2)C1` (stereo not shown) [Example 29, 2′-Chloro-5′-{1-[3-(3-hydroxy-pyrrolidin-1-yl)-propyl]-5-methanesulfonyl-4,5,6,7-tetrahydro-1H-pyrazolo[4,3-c]pyridin-3-yl}-biphenyl-3-carboxylic acid (oxazol-2-ylmethyl)-amide] stands 477 nM; under `CS(=O)(=O)N1CCc2c(c(-c3ccc(Cl)c(-c4cccc(C(=O)NCc5ncco5)c4)c3)nn2CCCN2CCCC2)C1` [Example 12, 2′-Chloro-5′-[5-methanesulfonyl-1-(3-pyrrolidin-1-yl-propyl)-4,5,6,7-tetrahydro-1H-pyrazolo[4,3-c]pyridin-3-yl]-biphenyl-3-carboxylic acid (oxazol-2-ylmethyl)-amide], 240 nM.
As for `CC(=O)N1CCc2c(c(-c3ccc(Cl)c(-c4cccc(C(=O)NCc5nc6ccccc6s5)c4)c3)nn2CCCN2CCCC2)C1` [Example 38, 5′-[5-Acetyl-1-(3-pyrrolidin-1-yl-propyl)-4,5,6,7-tetrahydro-1H-pyrazolo[4,3-c]pyridin-3-yl]-2′-chloro-biphenyl-3-carboxylic acid (benzothiazol-2-ylmethyl)-amide], the Ki amounted to 231 nM.
Consider `CN(C)S(=O)(=O)c1cccc2c1N(CCNC(=O)c1cccc(-c3cc(-c4nn(CCCN5CCC(O)C5)c5c4CNCC5)ccc3Cl)c1)CC2` (stereo not shown) [Example 45, 2′-Chloro-5′-{1-[3-(3-hydroxy-pyrrolidin-1-yl)-propyl]-4,5,6,7-tetrahydro-1H-pyrazolo[4,3-c]pyridin-3-yl}-biphenyl-3-carboxylic acid [2-(7-dimethylsulfamoyl-2,3-dihydro-indol-1-yl)-ethyl]-amide], for which the Ki is 225 nM.
Consider `COc1ccc(NCCNC(=O)c2cccc(-c3cc(-c4nn(CCCN5CCC(O)C5)c5c4CN(S(C)(=O)=O)CC5)ccc3Cl)c2)cc1` (stereo not shown) [Example 28, 2′-Chloro-5′-{1-[3-(3-hydroxy-pyrrolidin-1-yl)-propyl]-5-methanesulfonyl-4,5,6,7-tetrahydro-1H-pyrazolo[4,3-c]pyridin-3-yl}-biphenyl-3-carboxylic acid [2-(4-methoxy-phenylamino)-ethyl]-amide], for which the Ki amounted to 19.5 nM.
In the case of `COc1ccc(NCCNC(=O)c2cccc(-c3cc(-c4nn(CCCN5CCCC5)c5c4CN(S(C)(=O)=O)CC5)ccc3Cl)c2)cc1Cl` [Example 4, 2′-Chloro-5′-[5-methanesulfonyl-1-(3-pyrrolidin-1-yl-propyl)-4,5,6,7-tetrahydro-1H-pyrazolo[4,3-c]pyridin-3-yl]-biphenyl-3-carboxylic acid [2-(3-chloro-4-methoxy-phenylamino)-ethyl]-amide], the Ki worked out at 253 nM.
Turning to `CS(=O)(=O)N1CCc2c(c(-c3ccc(Cl)c(-c4cccc(C(=O)NCc5ncco5)c4)c3)nn2CCCN2CCC(N3CCCC3=O)CC2)C1` [Example 32, 2′-Chloro-5′-(5-methanesulfonyl-1-{3-[4-(2-oxo-pyrrolidin-1-yl)-piperidin-1-yl]-propyl}-4,5,6,7-tetrahydro-1H-pyrazolo[4,3-c]pyridin-3-yl)-biphenyl-3-carboxylic acid (oxazol-2-ylmethyl)-amide], the Ki came to 264 nM.

These data come from US20080207683A1, “BIARYL-S[…]-PYRAZOLO-PYRIDINE MODULATORS OF CATHEPSIN S” (priority 2007, published 2008).
